“Also recorded” adds a separate entry of the source.
Experiments:
[1] = system: platelet CD62; assay: Depletion of DDPAS from plasma by platelets with Compound A, and EDTA elution, read in the DDPASFCA; format: cell-based, human
Experimental: Thrombocytopenic patient plasma was processed as described in Example 1 and Delta fluorescence is shown (FIG. 3, panel A) as a function of volume percent patient plasma. After treatment of 099016 plasma with platelets in the presence and in the absence of compound A, samples were evaluated in the DDPASFCA at a 1/3 dilution using fresh donor PRP.
Thrombocytopenic patient 099016 plasma was evaluated in the DDPASFCA as in Example 1, with the modification that 10 μL of sample, or a sample of 099016 plasma diluted into DDPASFCA-negative plasma, was combined with 20 μL donor PRP (final platelet concentration=1×10^8/mL). The signal in the DDPASFCA was proportional to the patient plasma dilution. Next, the ability of platelets, a physiologically relevant source of GPIIb/IIIa, to remove certain kinds of DDPASs was tested. DDPAS positive thrombocytopenic plasma 099016 (70 μl) was treated with fresh donor PRP (140 μL, final platelet concentration 3×10^8/mL) for 60 minutes in the presence or the absence of compound A (1 μM). Platelets were removed by centrifugation at 1000×G for 5 minutes, and the resulting plasma samples were tested in the DDPASFCA as in Example 1, with the modification that 3 μL of sample was combined with 27 μL donor PRP (final platelet concentration=1×10^8/mL) in the presence or the absence of Compound A (1 μM). […] The samples were then evaluated in the DDPASFCA.

[2] = system: platelet CD62; assay: Modified DDPASFCA using the donor's own platelets; format: cell-based; conditions: healthy human donor, Compound A 200 nM
Experimental: The occurrence of DDPASs in the general population was tested by a modification of the DDPASFCA using the donor's own platelets to conduct the assay. PRP (100 μL) from healthy human donors was treated with Compound A (200 nM) or vehicle for 90 minutes. A 5μL sample was transferred to microtiter wells containing 20 μL anti-CD62-PE and samples analyzed by flow cytometry as described in Example 1. Positive samples (defined as Delta PE fluorescence of >0) were retested using the method of Example 1 (heterologous donor). 8% of donors were weakly positive (delta between 10 and 25). […] Thus, the prevalence and titer of pre-existing DDPASs is relatively low in the general population.

[3] = system: drug-dependent anti-platelet antibody (DDAB); assay: Depletion and recovery of DDAB from patient 099016 plasma by platelets with Compound A, read in the DDAB ELISA; format: binding, human
Experimental: Thrombocytopenic patient plasma was processed as described in Example 9. After treatment of 099016 plasma with platelets in the presence and in the absence of Compound A, samples were evaluated in the DDAB ELISA (see commonly-owned pending U.S. patent application Ser. No. 09/237061, filed Jan. 26, 1999, the contents of which are herein incorporated by reference) at 3 dilutions (1/100; 1/250 and 1/500) for residual DDAB. Murine JK094 was used as a positive control for the ELISA.
Thrombocytopenic patient 099016 plasma was processed with platelets in the presence or the absence of Compound A to deplete any DDAB as described in Example 9. After treatment of 099016 plasma with platelets in the presence and in the absence of Compound A, samples were evaluated in the DDAB ELISA at 3 dilutions (1/100, 1/250 and 1/500) for residual DDAB. Murine JK094 was used as a positive control for the ELISA.

CCCCOC(=O)N[C@@H](CNC(=O)C[C@H]1CC(c2ccc(C(=N)N)cc2)=NO1)C(=O)O [Compound A, 2(S)-[(n-butoxycarbonyl)amino]-3-[[[3-[4-(aminoiminomethyl)phenyl]isoxazolin-5(R)-yl]methylcarbonyl]amino]propionic acid] was tested, and the “residual DDPAS in plasma after treatment with platelets” value ([1]; patient 099016 plasma, donor PRP 60 minutes, Compound A 1 μM) was “depleted of the DDPAS; also recorded: specifically depleted the DDPAS”, the “DDPAS in EDTA eluate of platelets” value ([1]; platelets treated with 099016 plasma with Compound A, 9 mM EDTA, 37° C., 2 hours, versus DPC43 and DPC44) was “substantially positive; also recorded: elevated DDPAS” and the “Delta PE fluorescence of the significantly positive sample” value [2] was 566. The “residual DDAB in plasma after treatment with platelets” value ([3]; patient 099016 plasma, donor platelets, Compound A, dilutions 1/100, 1/250 and 1/500) was “specifically depleted the DDAB” and the “DDAB in EDTA eluants of platelets” value ([3]; platelets treated with 099016 plasma with Compound A) was “showed DDAB; also recorded: contain a detectable DDAB”.
